Where a SMILES comes first, the peptide text is derived from it. Bridges are numbered along the chain shown (N, C = ends). [ ]: non-standard residue; d: D form. The star is where a group is joined. Palmitoyl = CCCCCCCCCCCCCCCC(=O)*; Hyp = O=C(O)[C@@H]1C[C@@H](O)CN1; Myristoyl = CCCCCCCCCCCCCC(=O)*; NMeNle = CCCC[C@H](NC)C(=O)O; NMeA = CN[C@@H](C)C(=O)O

In data set [1] the target is PD-1-Ig binding to PD-L1-TVMV-His (PD-L1-His) (Homo sapiens (Human), UniProt Q9NZQ7). The data set is described as follows: PD-1/PD-L1 Homogenous Time-Resolved Fluorescence (HTRF) binding assay. To be noted: PD-1-Ig (20 nM)/PD-L1-His (10 nM) binding assay. From the text: The ability of the macrocyclic peptides of the present disclosure to bind to PD-L1 was investigated using a PD-1/PD-L1 Homogenous Time-Resolved Fluorescence (HTRF) binding assay.
Homogenous Time-Resolved Fluorescence (HTRF) Assays of Binding of Soluble PD-1 to Soluble PD-L1. Soluble PD-1 and soluble PD-L1 refers to proteins with carboxyl-end truncations that remove the transmembrane-spanning regions and are fused to heterologous sequences, specifically the Fc portion of the human immunoglobuling G sequence (Ig) or the hexahistidine epitope tag (His). All binding studies were performed in an HTRF assay buffer consisting of dPBS supplemented with 0.1% (w/v) bovine serum albumin and 0.05% (v/v) Tween-20. For the PD-1-Ig/PD-L1-His binding assay, inhibitors were pre-incubated with PD-L1-His (10 nM final) for 15 m in 4 μl of assay buffer, followed by addition of PD-1-Ig (20 nM final) in 1 μl of assay buffer and further incubation for 15 m. PD-L1 fusion proteins from either human, cynomologous macaques, mouse, or other species were used. HTRF detection was achieved using europium crypate-labeled anti-Ig monoclonal antibody (1 nM final) and allophycocyanin (APC) labeled anti-His monoclonal antibody (20 nM final). Antibodies were diluted in HTRF detection buffer and 5 μl was dispensed on top of binding reaction. […]
In general terms: In TR-FRET formats the signal depends on donor and acceptor labels being close together.

The conditions of data set [2]: oral administration, extensive first-pass metabolism in the liver; cited from earlier work.

PD-1-Ig binding to PD-L1-TVMV-His (PD-L1-His), sequence (Q9NZQ7 other isoform, or with tags, fused parts or gaps): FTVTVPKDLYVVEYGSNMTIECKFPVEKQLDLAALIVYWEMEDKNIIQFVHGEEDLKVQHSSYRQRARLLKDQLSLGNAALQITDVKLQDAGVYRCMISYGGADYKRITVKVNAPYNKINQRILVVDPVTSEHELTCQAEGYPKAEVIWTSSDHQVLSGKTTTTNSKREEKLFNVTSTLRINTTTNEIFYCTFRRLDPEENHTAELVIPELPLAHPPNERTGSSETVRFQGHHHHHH

As a reminder, the IC50 is the concentration that gives 50% inhibition. A low value points to inhibition by little substance. Compound `CCCCCCCCCCCCCCCC(=O)NCCCC[C@@H]1NC(=O)[C@H](CCCC)N(C)C(=O)[C@H](CCCC)N(C)C(=O)[C@H](Cc2c[nH]c3ccccc23)NC(=O)[C@H](CO)NC(=O)[C@H](Cc2c[nH]c3ccccc23)NC(=O)[C@@H]2C[C@@H](O)CN2C(=O)[C@H](CC(C)C)NC(=O)[C@H](Cc2cnc[nH]2)NC(=O)[C@@H]2CCCN2C(=O)[C@H](CC(=O)O)NC(=O)[C@H](C)N(C)C(=O)[C@H](Cc2ccc(O)cc2)NC(=O)CSC[C@@H](C(=O)NCC(N)=O)NC1=O` [Example 11058] ({CH2CO}-Y[NMeA]DPHL[Hyp]WSW[NMeNle][NMeNle]K(Palmitoyl)CG-NH2; thioether N-14) came in with an IC50 in data set [1] of 1930 nM. Consider `CCCC1O[C@@H]2C[C@H]3[C@@H]4CCC5=CC(=O)C=C[C@]5(C)[C@H]4[C@@H](O)C[C@]3(C)[C@]2(C(=O)CO)O1` (stereo partly drawn) [budesonide], for which the bioavailability result in data set [2] is on record as “about 10%”.

With `CCCCCCCCCCCCCC(=O)NCCCC[C@@H]1NC(=O)[C@H](CCCC)N(C)C(=O)[C@H](CCCC)N(C)C(=O)[C@H](Cc2c[nH]c3ccccc23)NC(=O)[C@H](CO)NC(=O)[C@H](Cc2c[nH]c3ccccc23)NC(=O)[C@@H]2C[C@@H](O)CN2C(=O)[C@H](CC(C)C)NC(=O)[C@H](Cc2cnc[nH]2)NC(=O)[C@@H]2CCCN2C(=O)[C@H](CC(=O)O)NC(=O)[C@H](C)N(C)C(=O)[C@H](Cc2ccc(O)cc2)NC(=O)CSC[C@@H](C(=O)NCC(N)=O)NC1=O` [Example 11059] ({CH2CO}-Y[NMeA]DPHL[Hyp]WSW[NMeNle][NMeNle]K(Myristoyl)CG-NH2; thioether N-14), the IC50 in data set [1] worked out at 690 nM.

The values are drawn from patent US10988507B2, “Immunomodulators” (Bristol-Myers Squibb Company, priority 2016, dated 2021).
